This note sets out measurements from US6225478A, “Iridoid derivatives and neovascularization inhibitors containing the same as active ingredient” (Tsumura & Co., priority 1999, dated 2001).

Experiment [1] has as its system human umbilical-vein endothelial cells (HUVEC). Kind of experiment: Cell Migration Assay (CMA) Test, HUVEC (% relative to control). Format: cell-based. To be noted: Homo sapiens, HUVEC. How it is done:
Furthermore, the sample liquids of compounds used in the CPA and CMA tests were prepared in the manner described below. Firstly, after weighing out each compound, a calculated amount of DMSO was added. After dissolving the compound in the DMSO, phosphate buffered physiological saline (PBS (-)) was added to bring the sample concentration to 1 mg/ml in PBS (-). The amount of DMSO used to dissolve the compounds was adjusted in advance to that the concentration of DMSO at that time was 5%. The resulting liquids were diluted 10-fold with 5% DMSO-PBS (-) solution to prepare sample solutions having a concentration of 0.1 mg/ml. In the TFA test, 320 μl of the prepared 1 mg/ml sample solutions were removed followed by addition of 680 μl of PBS (-) to prepare samples having a concentration of […]. Moreover, 100 μl of this solution was removed followed by addition of 900 μl of PBS (-) to dilute 10-fold and prepare samples having a concentration of 1 μg/ml. P [Cell Proliferation Assay (CPA) Test]
After disseminating the 7th subculture of HUVEC obtained from the first generation in the same manner as above at 4 ml/well (3.0×10^5 cells/well) in a collagen-coated 6-well plate (NUNC), the cells were cultured for 48 hours at 37° C. in the presence of 5% CO2. The cells reached nearly a completely confluent state as a result of this culturing.
A double-edged, disposable razor blade was divided into four sections, of which one of those sections was pinched between a pair of forceps. Using this piece of razor blade, the cell surface in the above confluent state was scraped off. Two areas of the cell surface were scraped off in each well.
After washing the surface of the wells from which the cells had been scraped off with medium, 4.0 ml of fresh M199 (2+) medium were added followed by addition of 40 μl or 4 μl of sample solution (1 mg/ml). The cells were cultured for 24 hours at 37° C. in the presence of 5% CO2. After discarding the culture liquid, the cells were fixed for 30 minutes with methanol. Next, after staining the cells for 4 hours with Giemsa stain, the plates were washed with tap water and air dried.
Measurement of cell migration was performed by microscopically counting the number of cells that had newly migrated within the range of a 1 mm×1 mm block. […] The total number of cells counted in blocks 1 through 5 were then totaled to determine the overall total number of cells. Four fields were counted for each well.
Evaluation was performed determining the cell migration (%) according to the following formula.
Cell migration rate=number of migrating cells to which sample was added×100/number of migrating of control (+)
Control (+) indicates the number of migrating cells in the control well containing M199 (2+).

Experiment [2] shares this test system. The experiment is described as follows: Tube Formation Assay (TFA) Test, HUVEC in collagen gel. To be noted: for inhibition at 1 µg/mL / inhibition at 10 µg/mL / inhibition at 320 µM (stock): Homo sapiens, HUVEC; for inhibition at 1 µg/mL / inhibition at 10 µg/mL: 20 h, read-out: TFA (inhibition rate, %); for inhibition at 320 µM (stock): read-out: TFA Inhibition rate (%). Format: cell-based. The gist of the method: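 HUVEC (7th subculture, 1×10^5 cells/ml) attached to collagen gel for 2 h at 37 °C, given sample and overlaid with collagen, then cultured 20 h at 37 °C, 5% CO2 in M-199 with 20% FCS, 30 ng/ml b-FGF and 0.1 μM PMA. Tube length measured by image analysis; % inhibition relative to positive and negative controls.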

The test system of a further experiment is HUFEC. Kind of experiment: Cell Migration Assay (CMA) Test, inhibitory rate with control (-) correction. Format: cell-based, human. Particulars: 125 μl of 0.32 mM sample solution in 4.0 ml medium, 80% or more = remarkable; for inhibition at 320 µM (stock): Homo sapiens, 24 h. The essentials: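 Confluent HUFEC monolayers were scratch-wounded, then cultured 24 h at 37 °C, 5% CO2 in M199 (2+) medium with compound added as 125 μl of a 0.32 mM solution (3.2% DMSO) per 4 ml. Giemsa-stained cells migrating into 1 mm×1 mm blocks counted; inhibition % calculated relative to control (+) and control (−) wells.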

The mark [3] stands for this setting: Tables 75-83, 0.32 mM sample solution, method as for Compounds 1 through 60.

Read-outs that look alike come from different tables or passages of the source.

As for `CNC(=O)O[C@@H]1OC=C(C(=O)O)[C@H]2C[C@@H]3O[C@]3(C)[C@H]12` [compound 2, sodium (1S,4aS,6S,7R,7aR)-6,7-epoxy-1,4a,5,6,7,7a-hexahydro-7-methyl-1-(methylcarbamoyloxy) cyclopenta [c]-pyrane-4-carboxylic acid], the activity at 1 µg/mL in experiment [1] (24 h, read-out: CMA (% relative to control), 1 μg/ml, 60% or less = remarkable inhibition) is 88.4%. Further, the activity at 10 µg/mL in experiment [1] (24 h, read-out: CMA (% relative to control), 10 μg/ml, 60% or less = remarkable inhibition) turned out to be 95.8%. Besides, in experiment [2], the inhibition at 1 µg/mL was 69.1% and the inhibition at 10 µg/mL turned out to be 56.9%.
For the compound `CN(C)c1ccc(O)c2c1C[C@H]1C[C@H]3[C@H](N(C)C)C(O)=C(C(N)=O)C(=O)[C@@]3(O)C(O)=C1C2=O` [Minocycline, reference compound], in experiment [1] (1 μg/ml, 24 hours, 60% or less = remarkable inhibition, read-out: CMA (% relative to control)), the activity at 1 µg/mL was determined as 67.3%. In experiment [1] (10 μg/ml, 24 hours, 60% or less = remarkable inhibition, read-out: CMA (% relative to control)), the activity at 10 µg/mL turned out to be 51.6%. The inhibition at 1 µg/mL in experiment [2] (1 μg/ml, 20 hours, 40% or less judged remarkable) was 42.1%. Further, the inhibition at 10 µg/mL in experiment [2] (10 μg/ml, 20 hours, 40% or less judged remarkable) amounted to 56.7%.
For `COC(=O)C1=CO[C@@H](OC(=O)Nc2c(F)cccc2F)[C@@H]2C(C)=CC[C@H]12` [I-157], the values for the inhibition at 320 µM (stock) (in experiment [2] (setting [3]); with HUFEC) were 12.9% and 7.7%, respectively.
Take `COC(=O)C1=CO[C@@H](OC(=O)NCc2ccco2)[C@H]2[C@@H]1CC[C@@H]2C` [I-215]: the inhibition at 320 µM (stock) in experiment [2] (setting [3]) worked out at 8.1%; with HUFEC, 21.5%.
For `COC(=O)C1=CO[C@@H](OC(=O)NCCS)[C@@H]2C(C)=CC[C@H]12` [I-134], the figures for the inhibition at 320 µM (stock) (in experiment [2] (setting [3]); in the experiment with HUFEC) were 8.6% and 7.1%, respectively.
The like results for `COC(=O)C1=CO[C@@H](OC(=O)NCCCN(C)C)[C@H]2[C@@H]1CC[C@@H]2C` [I-210] were, in that order, 8.9% and 8%.
The like results for `COC(=O)C1=CO[C@@H](OC(=O)NCc2ccc(OC)cc2)[C@@H]2C(C)=CC[C@H]12` [I-83] were, in that order, 21.4% and 50%.
The like results for `COC(=O)C1=CO[C@@H](OC(=O)Nc2ccc(C)cc2)[C@H]2[C@@H]1CC[C@@H]2C` [I-270] were, in that order, 5.9% and 28.7%.
`COC(=O)C1=CO[C@@H](OC(=O)NCc2cccc(C(F)(F)F)c2)[C@@H]2C(C)=CC[C@H]12` [I-128]: the inhibition at 320 µM (stock) amounted to 9.4% in experiment [2] (setting [3]) and 8.7% with HUFEC.
The like results for `COC(=O)C1=CO[C@@H](OC(=O)NC(CO)CO)[C@H]2[C@@H]1CC[C@@H]2C` [I-249] were, in that order, 11.1% and 44%.
The like results for `CCOC(=O)c1ccc(NC(=O)O[C@@H]2OC=C(C(=O)OC)[C@H]3CC=C(C)[C@@H]23)cc1` [I-167] were, in that order, 5.1% and 4.1%.
The like results for `COC(=O)C1=CO[C@@H](OC(=O)NCCc2ccc(O)cc2)[C@H]2[C@@H]1CC[C@@H]2C` [I-206] were, in that order, 14.2% and 33.6%.
As to `COC(=O)C1=COC[C@H]2[C@@H]1C[C@@H]1O[C@@]12COC(=O)NCCCl` [I-291], the figures for the inhibition at 320 µM (stock) (in experiment [2] (setting [3]); in the experiment on HUFEC) were 44.5% and 7%, respectively.
The like results for `COC(=O)C1=CO[C@@H](OC(=O)NCCc2ccc(O)c(OC)c2)[C@@H]2C(C)=CC[C@H]12` [I-146] were, in that order, 7.8% and 17.2%.
The like results for `CNC(=O)O[C@@H]1OC=C(C(=O)N2CCN(CCO)CC2)[C@H]2CC[C@@H](C)[C@@H]12` [I-282] were, in that order, 6% and 5.8%.
The like results for `COC(=O)C1=CO[C@@H](OC(=O)NCc2ccccc2F)[C@@H]2C(C)=CC[C@H]12` [I-126] were, in that order, 4% and 6.5%.
Take `CCOC(=O)C1=COC(OC(=O)NC)C2C1CC1OC12CO` (centres unmarked) [I-279]: the results for the inhibition at 320 µM (stock) (in experiment [2] (setting [3]); in the experiment on HUFEC) were 13.2% and 45.1%, respectively.
With `CNC(=O)O[C@@H]1OC=C(C(=O)O)[C@H]2CC=C(C)[C@@H]12` [I-313], the “TFA (inhibition rate, %)” value in experiment [2] (setting [3]) was 27.0%. For the same compound, the “CMA Inhibition rate (%)” value in the experiment on HUFEC (24 hours) was 60.2%.
As to `COC(=O)C1=CO[C@@H](OC(=O)NCc2cccc(F)c2)[C@H]2[C@@H]1CC[C@@H]2C` [I-232], the values for the inhibition at 320 µM (stock) (in experiment [2] (setting [3]); in the experiment on HUFEC) were 2.9% and 6.5%, respectively.
The like results for `CCN1CCN(C(=O)O[C@@H]2OC=C(C(=O)OC)[C@H]3CC=C(C)[C@@H]23)CC1` [I-95] were, in that order, 4.5% and 9.8%.
The like results for `CCNC(=O)O[C@@H]1OC=C(C(=O)OC)[C@H]2CC=C(C)[C@@H]12` [I-151] were, in that order, 38.1% and 35.9%.
The like results for `CNC(=O)O[C@@H]1OC=C(C(=O)N2CCN(CCO)CC2)[C@H]2CC=C(C)[C@@H]12` [I-309] were, in that order, 5.2% and 48%.
With `COC(=O)C1=CO[C@@H](OC(=O)NC(C)C)[C@H]2[C@@H]1CC[C@@H]2C` [I-261], the inhibition at 320 µM (stock) in experiment [2] (setting [3]) is 32.1%; with HUFEC, 37.5%.
For `CCC(CC)NC(=O)O[C@@H]1OC=C(C(=O)OC)[C@H]2CC=C(C)[C@@H]12` [I-102], the figures for the inhibition at 320 µM (stock) (in experiment [2] (setting [3]); in the experiment on HUFEC) were 8.2% and 15.6%, respectively.
The like results for `COC(=O)C1=CO[C@@H](OC(=O)Nc2ccc(Cl)c(Cl)c2)[C@@H]2C(C)=CC[C@H]12` [I-163] were, in that order, 11.5% and 5.6%.
The like results for `COC(=O)C1=COC[C@@H]2C(COC(=O)NCCCl)=CC[C@H]12` [I-296] were, in that order, 21.3% and 19.9%.
The like results for `CCCCCC[C@]12O[C@H]1C[C@@H]1C(C(=O)OC)=COC[C@@H]12` [I-298] were, in that order, 9.5% and 7.8%.
As to `COC(=O)C1=CO[C@@H](OC(=O)Nc2cccc(C(C)=O)c2)[C@@H]2C(C)=CC[C@H]12` [I-171], the results for the inhibition at 320 µM (stock) (in experiment [2] (setting [3]); in the experiment with HUFEC) were 5.8% and 3%, respectively.
The like results for `CCCN(C)C(=O)O[C@@H]1OC=C(C(=O)OC)[C@H]2CC=C(C)[C@@H]12` [I-90] were, in that order, 22.8% and 4.3%.
The like results for `COC(=O)C1=CO[C@@H](OC(=O)N2CCc3ccccc3C2)[C@@H]2C(C)=CC[C@H]12` [I-120] were, in that order, 7.8% and 3.1%.
The like results for `COC(=O)C1=CO[C@@H](OC(=O)NCCc2ccccc2)[C@@H]2C(C)=CC[C@H]12` [I-119] were, in that order, 4.2% and 18.8%.
For `COC(=O)C1=CO[C@@H](OC(=O)NN2CCN(C)CC2)[C@@H]2C(C)=CC[C@H]12` [I-73], the inhibition at 320 µM (stock) stood at 8.2% in experiment [2] (setting [3]) and 15.6% with HUFEC.

A word on the inhibition: it is the drop in the measured response relative to a control, in per cent.
